This passage reports EC50 and IC50 results from patent US20230391772A1, “METHODS AND COMPOSITIONS FOR TARGETED PROTEIN DEGRADATION” (Ranok Therapeutics (Hangzhou) Co. Ltd., priority 2020, published 2023).

For test [1], the system named is NCI-H358 human non-small cell lung cancer. Put plainly: NCI-H358 CCK-8 proliferation assay. Conditions: NCI-H358 cells, 72 hr. The class given is cell-based. Put shortly: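 MIA PaCa-2 (2 copies KRAS(G12C)), NCI-H358 and NCI-H23 (1 copy KRAS(G12C) each) were exposed to compound in 3-fold serial dilutions from 20 μM to 1.02 nM. Viability was read as CCK-8 absorbance, and % inhibition was computed against DMSO-treated cells, with cell-free DMSO medium as blank.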
A general note: Formazan colour is commonly taken as a measure of viable cells.

Test [2] addresses T1, HSP90a protein (Homo sapiens, UniProt P07900).
T1 construct: purchased BPS Bioscience 50298
Kind of test: HSP90α-binding fluorescent polarization (FP) assay, BODIPY-labeled RNK04010 probe. As to conditions: FP competition with RNK04010 (BODIPY-labeled), 5 nM, 300 min at 25° C. Summed up: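 N-terminal HSP90a construct; tracer 5 nM final (FITC-geldanamycin or BODIPY-RNK04010, a labeled triazolone binder). Compounds 20 μM–5.2 nM, 2.5-fold steps. 25° C, 120 min (FITC) / 300 min (BODIPY). FP readout.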

Where only a bound is given, the exact number is not on record here.

A word on the EC50: it is the concentration giving half of the maximal effect. The IC50 is the concentration that gives 50% inhibition. Low values mean higher potency, high ones lower potency.

On to `C=CC(=O)N1CCN(c2nc(NCCC(=O)N3CCN(Cc4ccc5c(c4)CN(C(=O)c4cc(CCC)c(O)cc4O)C5)CC3)nc3c2CCN(c2cc(O)cc4ccccc24)C3)CC1` [Compound 94, 1-(4-(2-((3-(4-((2-(2,4-dihydroxy-5-propylbenzoyl)isoindolin-5-yl)methyl)piperazin-1-yl)-3-oxopropyl)amino)-7-(3-hydroxynaphthalen-1-yl)-5,6,7,8-tetrahydropyrido[3,4-d]pyrimidin-4-yl)piperazin-1-yl)prop-2-en-1-one, trifluoroacetic acid], for which the EC50 in test [1] was above 1000 nM. In test [2], the IC50 was above 1000 nM.
Consider `CCC(=O)N1CCN(c2nc(NCCC(=O)NCc3ccc(-n4c(O)nnc4-c4cc(CC)c(O)cc4O)cc3)nc3c2CCN(c2cc(O)cc4ccccc24)C3)CC1` [Compound 37, N-(4-(3-(5-ethyl-2,4-dihydroxyphenyl)-5-hydroxy-4H-1,2,4-triazol-4-yl)benzyl)-3-((7-(3-hydroxynaphthalen-1-yl)-4-(4-propionylpiperazin-1-yl)-5,6,7,8-tetrahydropyrido[3,4-d]pyrimidin-2-yl)amino)propanamide, trifluoroacetic acid], for which the EC50 in test [1] is above 1000 nM. The compound also showed an IC50 in test [2] of 100 to 1000 nM.
`CCc1cc(-c2nnc(O)n2-c2ccc(CNC(=O)CCNc3nc4c(c(N5CCN(C(C)=O)CC5)n3)CCN(c3cc(O)cc5ccccc35)C4)c(C(F)(F)F)c2)c(O)cc1O` [Compound 53, 3-((4-(4-acetylpiperazin-1-yl)-7-(3-hydroxynaphthalen-1-yl)-5,6,7,8-tetrahydropyrido[3,4-d]pyrimidin-2-yl)amino)-N-(4-(3-(5-ethyl-2,4-dihydroxyphenyl)-5-hydroxy-4H-1,2,4-triazol-4-yl)-2-(trifluoromethyl)benzyl)propanamide, trifluoroacetic acid] returned an EC50 in test [1] above 1000 nM. In test [2], the IC50 is above 1000 nM.
`C=CC(=O)N1CCN(c2nc(NCCC(=O)NCCOc3ccc(-n4c(O)nnc4-c4cc(C(C)C)c(O)cc4O)cc3)nc3c2CCN(c2cc(O)cc4ccccc24)C3)CC1` [Compound 3, 3-((4-(4-acryloylpiperazin-1-yl)-7-(3-hydroxynaphthalen-1-yl)-5,6,7,8-tetrahydropyrido[3,4-d]pyrimidin-2-yl)amino)-N-(2-(4-(3-(2,4-dihydroxy-5-isopropylphenyl)-5-hydroxy-4H-1,2,4-triazol-4-yl)phenoxy)ethyl)propanamide, trifluoroacetic acid]: in test [1], the EC50 was above 1000 nM. This compound also showed an IC50 in test [2] of 100 to 1000 nM.
In the same order, the values of `C=CC(=O)N1CCN(c2nc(NCCC(=O)N3CCN(Cc4ccc5c(c4)CN(C(=O)c4cc(CC)c(O)cc4O)C5)CC3)nc3c2CCN(c2cc(O)cc4ccccc24)C3)CC1` [Compound 68, 1-(4-(2-((3-(4-((2-(5-ethyl-2,4-dihydroxybenzoyl)isoindolin-5-yl)methyl)piperazin-1-yl)-3-oxopropyl)amino)-7-(3-hydroxynaphthalen-1-yl)-5,6,7,8-tetrahydropyrido[3,4-d]pyrimidin-4-yl)piperazin-1-yl)prop-2-en-1-one, trifluoroacetic acid] are above 1000 nM and above 1000 nM.
In the same order, the values of `C=CC(=O)N1CCN(c2nc(NCCC(=O)N3CCC(CN4CCN(Cc5ccc(-n6c(O)nnc6-c6ccc(O)cc6O)cc5)CC4)CC3)nc3c2CCN(c2cc(O)cc4ccccc24)C3)CC1` [Compound 13, 1-(4-(2-((3-(4-((4-(4-(3-(2,4-dihydroxyphenyl)-5-hydroxy-4H-1,2,4-triazol-4-yl)benzyl)piperazin-1-yl)methyl)piperidin-1-yl)-3-oxopropyl)amino)-7-(3-hydroxynaphthalen-1-yl)-5,6,7,8-tetrahydropyrido[3,4-d]pyrimidin-4-yl)piperazin-1-yl)prop-2-en-1-one, trifluoroacetic acid] are above 1000 nM and above 1000 nM.
In the same order, the values of `C=CC(=O)N1CCN(c2nc(NCCC(=O)NCCc3ccc(-n4c(O)nnc4-c4cc(C(C)C)c(O)cc4O)cc3)nc3c2CCN(c2cc(O)cc4ccccc24)C3)CC1` [Compound 4, 3-((4-(4-acryloylpiperazin-1-yl)-7-(3-hydroxynaphthalen-1-yl)-5,6,7,8-tetrahydropyrido[3,4-d]pyrimidin-2-yl)amino)-N-(4-(3-(2,4-dihydroxy-5-isopropylphenyl)-5-hydroxy-4H-1,2,4-triazol-4-yl)phenethyl)propanamide, trifluoroacetic acid] are above 1000 nM and 100 to 1000 nM.
For `CCC(=O)N1CCN(c2nc(NCCC(=O)NCCOCCOc3ccc(-n4c(O)nnc4-c4cc(C(C)C)c(O)cc4O)cc3)nc3c2CCN(c2cc(O)cc4ccccc24)C3)CC1` [Compound 73, N-(2-(2-(4-(3-(2,4-dihydroxy-5-isopropylphenyl)-5-hydroxy-4H-1,2,4-triazol-4-yl)phenoxy)ethoxy)ethyl)-3-((7-(3-hydroxynaphthalen-1-yl)-4-(4-propionylpiperazin-1-yl)-5,6,7,8-tetrahydropyrido[3,4-d]pyrimidin-2-yl)amino)propanamide, trifluoroacetic acid], the EC50 in test [1] is above 1000 nM. The IC50 in test [2] was in the range of 100 to 1000 nM.
In the same order, the values of `C=CC(=O)N1CCN(c2nc(NCCC(=O)NCc3ccc(-n4c(O)nnc4-c4cc(CC)c(O)cc4O)cc3F)nc3c2CCN(c2cc(O)cc4ccccc24)C3)CC1` [Compound 41, 3-((4-(4-acryloylpiperazin-1-yl)-7-(3-hydroxynaphthalen-1-yl)-5,6,7,8-tetrahydropyrido[3,4-d]pyrimidin-2-yl)amino)-N-(4-(3-(5-ethyl-2,4-dihydroxyphenyl)-5-hydroxy-4H-1,2,4-triazol-4-yl)-2-fluorobenzyl)propanamide, trifluoroacetic acid] are above 1000 nM and 100 to 1000 nM.
In the same order, the values of `C=CC(=O)N1CCN(c2nc(NCCC(=O)N3CCC(CN4CCN(Cc5ccc(-n6c(O)nnc6-c6cc(CC)c(O)cc6O)cc5F)CC4)CC3)nc3c2CCN(c2cc(O)cc4ccccc24)C3)CC1` [Compound 8, 1-(4-(2-((3-(4-((4-(4-(3-(5-ethyl-2,4-dihydroxyphenyl)-5-hydroxy-4H-1,2,4-triazol-4-yl)-2-fluorobenzyl)piperazin-1-yl)methyl)piperidin-1-yl)-3-oxopropyl)amino)-7-(3-hydroxynaphthalen-1-yl)-5,6,7,8-tetrahydropyrido[3,4-d]pyrimidin-4-yl)piperazin-1-yl)prop-2-en-1-one, trifluoroacetic acid] are 100 to 1000 nM and 100 to 1000 nM.
The like results for `CC(=O)N1CCN(c2nc(NCCC(=O)N3CCN(Cc4ccc(CN(C)Cc5ccc(-n6c(C(=O)NCC(F)(F)F)nnc6-c6cc(C(C)C)c(O)cc6O)cc5)cc4)CC3)nc3c2CCN(c2cccc4ccccc24)C3)C[C@H]1CC#N` [Compound 124, (R)-4-(4-(((4-((4-(3-((4-(4-acetyl-3-(cyanomethyl)piperazin-1-yl)-7-(naphthalen-1-yl)-5,6,7,8-tetrahydropyrido[3,4-d]pyrimidin-2-yl)amino)propanoyl)piperazin-1-yl)methyl)benzyl)(methyl)amino)methyl)phenyl)-5-(2,4-dihydroxy-5-isopropylphenyl)-N-(2,2,2-trifluoroethyl)-4H-1,2,4-triazole-3-carboxamide, trifluoroacetic acid] were, in that order, 100 to 1000 nM and 100 to 1000 nM.
For `C=CC(=O)N1CCN(c2nc(NCCC(=O)NCc3ccc(-n4c(O)nnc4-c4ccc(O)cc4O)cc3)nc3c2CCN(c2cccc4cccc(Cl)c24)C3)C[C@@H]1CC#N` [Compound 111, (S)-3-((4-(4-acryloyl-3-(cyanomethyl)piperazin-1-yl)-7-(8-chloronaphthalen-1-yl)-5,6,7,8-tetrahydropyrido[3,4-d]pyrimidin-2-yl)amino)-N-(4-(3-(2,4-dihydroxyphenyl)-5-hydroxy-4H-1,2,4-triazol-4-yl)benzyl)propanamide, trifluoroacetic acid], in test [1], the EC50 is above 1000 nM. In addition, the IC50 in test [2] is above 1000 nM.
Compound `CCCc1cc(-c2nnc(O)n2-c2ccc(CNC(=O)CCNc3nc4c(c(N5CCN(C(=O)CC)CC5)n3)CCN(c3cc(O)cc5ccccc35)C4)cc2)c(O)cc1O` [Compound 32, N-(4-(3-(2,4-dihydroxy-5-propylphenyl)-5-hydroxy-4H-1,2,4-triazol-4-yl)benzyl)-3-((7-(3-hydroxynaphthalen-1-yl)-4-(4-propionylpiperazin-1-yl)-5,6,7,8-tetrahydropyrido[3,4-d]pyrimidin-2-yl)amino)propanamide, trifluoroacetic acid] gave an EC50 in test [1] above 1000 nM. This compound also displayed an IC50 in test [2] above 1000 nM.
In test [1], `C=CC(=O)N1CCN(c2nc(NCCC(=O)N3CCN(Cc4ccc5c(c4F)CN(C(=O)c4cc(C)c(O)cc4O)C5)CC3)nc3c2CCN(c2cc(O)cc4ccccc24)C3)CC1` [Compound 107, 1-(4-(2-((3-(4-((2-(2,4-dihydroxy-5-methylbenzoyl)-4-fluoroisoindolin-5-yl)methyl)piperazin-1-yl)-3-oxopropyl)amino)-7-(3-hydroxynaphthalen-1-yl)-5,6,7,8-tetrahydropyrido[3,4-d]pyrimidin-4-yl)piperazin-1-yl)prop-2-en-1-one, trifluoroacetic acid] yielded an EC50 above 1000 nM. This compound also had an IC50 in test [2] above 1000 nM.
